Patent US20240279304A1, “DSG2 COMPOSITIONS AND METHODS” (Arvada Therapeutics, Inc., priority 2021, published 2024)
Entries after “also recorded” stand apart in the source; their conditions may differ.

Key:
[1] = test system: human iPSC-derived cardiomyocytes; assay: CiPA multielectrode array (MEA) assay, cell index; type: cell-based
Method: To determine the effect of anti-DSG2 antibodies in cardiomyocytes, the cardiac in vitro proarrhythmia (CiPA) assay was performed (Sager et al. Am Heart J 2014; 167:292-300; the contents of which are herein incorporated by reference in its entirety). CiPA is envisioned to consist of four components: (1) an evaluation of the effects of test agents on cardiac ion channel assays; (2) in silico modeling of the cardiac action potential based on the ion channel results to integrate the data with cardiac function; (3) experimental measurement of test agent effects in human ventricular myocytes to confirm the modeling result; and (4) scoring the results. The multielectrode array (MEA) assay is a component of CiPA which uses human induced pluripotent stem cell (iPSC)-derived cardiomyocytes to evaluate two-dimensional excitation propagation by recording spontaneous ECG-like field potentials. The sodium spike quantified below is a measurement of the specific sodium channel current in the cardiomyocyte and is also described in Blinova K, et al. Cell Rep. 2018 Sep. 25; 24(13):3582-3592 (the contents of which are herein incorporated by reference in its entirety). CiPA is considered a clinically validated cardiomyocyte-based assay by the FDA and the EMA. […] The parameters evaluated include measuring a change in the spike in the component of electrical signal propagation (e.g. sodium spike) and cell index—a function of cell impedance and cell number. Changes in sodium spike may be indicative of arrhythmia and a change in cell index (CI) may be indicative of changes to cell connectivity.
Cell index is inversely related the cell layer's conductivity to electrical current. Increased conductivity across the cell layer, may indicate that there are more gaps in the cell layer, implying that the cells are less well-adhered to each other. Thus, increased conductivity across the cell layer, may result in lower cell index. […] The concentration of anti-DSG2 antibodies varied from 0.00005 μg/mL to 5 μg/mL. […] The concentration of lidocaine varied from 3 μM to 100 μM. […] The concentration of anti-DSG2 antibodies varied from 0.00005 μg/mL to 5 μg/mL.

[2] = Dynamic light scattering (DLS) of DSG2 fusion polypeptides; type: physicochemical; details: average polymer distribution index
Text: 6 candidates were compared to the reference sample.

[3] = test system: anti-DSG2 antibodies in sera of ARVC patients; assay: Electrochemical immunoassay, blocking of ARVC patient sera binding to DSG2 extracellular domain; design: species or system human; details: fusion polypeptides 5 μg/mL; patient sera 10% (v/v); FIG. 5
Method: DSG2 fusion polypeptides were investigated for the ability to block the binding of anti-DSG2 antibodies in sera of ARVC patients to the DSG2 extracellular domain in an electrochemical immunoassay. The fusion polypeptides were added to a final concentration of 5 μg/mL and patient sera were used at a final concentration of 10% (v/v). The results are shown in the series of bar charts in FIG. 5, where the numbers 961, 965, 978, 986 and 964 indicate ARVC patient serum samples.
In FIG. 5, the first data series from the left is for DSG2FP #1 (described above as amino acids 49-608 of SEQ ID NO:30; Linker (IEGRMD (SEQ ID NO: 28)); amino acids 100-330 of IgG1 (SEQ ID NO: 4). The second data series from the left is for DSG2(50-602)-6×His, which is a fusion polypeptide of DSG2 amino acids 50-602 of SEQ ID NO: 1 (complete extracellular domain) to a hexahistidine peptide tag. The third data series from the left is for a combination of fusion polypeptides which includes EC1(50-155)-6×His, a fusion of DSG2 amino acids 50-155 of SEQ ID NO: 1 (EC1) to a hexahistidine peptide tag and EC2(151-268)-6×His, a fusion of DSG2 amino acids 151-268 of SEQ ID NO: 1 (EC2) to a hexahistidine peptide tag. […] It is likely that other affinity tags may be determined to be useful in alternative embodiments of DSG2 polypeptides, with examples including, but not limited to CBP, MBP, streptavidin and GST, for example. […]

anti-DSG2 antibody = anti-DSG2 antibody meso scale discovery (MSD) assay, blocking of anti-DSG2 antibody; type: binding; details: for % inhibition: fraction C (table title)
Method: The DSG2 fusion polypeptides were tested for the ability to block anti-DSG2 antibody by an anti-DSG2 antibody meso scale discovery (MSD) assay. […] The DSG2 fusion polypeptides were subjected to size exclusion chromatography and different elution fractions were examined. […] As shown in Table 7 and FIG. 1B, FIG. 1C, and FIG. 1D, enriching for fraction C improved the ability of the DSG2 fusion polypeptides to block ARVC patient serum.

For “DSG2FP#1: R&D Systems DSG2 extracellular domain (49-608 of SEQ ID NO: 30); linker IEGRMD; amino acids 100-330 of IgG1”, the “reversal of effects of anti-DSG2 antibodies on cell index (in words)” value [1] was “reversed; also recorded: completely blocks the effect of the anti-DSG2 antibodies”, the “Cell Index (+/- SEM)” value ([1]; added with Anti-DSG2 antibody (0.00005 μg/mL)) was 22.4 (1.9) and the “Cell Index (+/- SEM)” value ([1]; added with Anti-DSG2 antibody (0.0005 μg/mL)) was 22.4 (1.1). For the same substance, the “Cell Index (+/- SEM)” value ([1]; added with Anti-DSG2 antibody (0.005 μg/mL)) was 20.4 (0.5), the “Cell Index (+/- SEM)” value ([1]; added with Anti-DSG2 antibody (0.05 μg/mL)) was 21.6 (0.4) and the “Cell Index (+/- SEM)” value ([1]; added with Anti-DSG2 antibody (0.5 μg/mL)) was 22.0 (0.8). For the same substance, the “Cell Index (+/- SEM)” value ([1]; added with Anti-DSG2 antibody (5 μg/mL)) was 24.1 (0.5), the “Cell Index (+/- SEM)” value ([1]; added with Anti-VCAM1 antibody (0.00005 μg/mL)) was 23.2 (0.7) and the “Cell Index (+/- SEM)” value ([1]; added with Anti-VCAM1 antibody (0.0005 μg/mL)) was 22.0 (0.5). The “Cell Index (+/- SEM)” value ([1]; added with Anti-VCAM1 antibody (0.005 μg/mL)) was 21.0 (0.5), the “Cell Index (+/- SEM)” value ([1]; added with Anti-VCAM1 antibody (0.05 μg/mL)) was 21.0 (0.4) and the “Cell Index (+/- SEM)” value ([1]; added with Anti-VCAM1 antibody (0.5 μg/mL)) was 21.8 (0.5). The “Cell Index (+/- SEM)” value ([1]; added with Anti-VCAM1 antibody (5 μg/mL)) was 24.6 (0.5), the “Cell Index (+/- SEM)” value ([1]; added with Rabbit IgG (0.00005 μg/mL)) was 22.5 (1.7) and the “Cell Index (+/- SEM)” value ([1]; added with Rabbit IgG (0.0005 μg/mL)) was 22.4 (1.3). For the same substance, the “Cell Index (+/- SEM)” value ([1]; added with Rabbit IgG (0.005 μg/mL)) was 21.0 (0.8), the “Cell Index (+/- SEM)” value ([1]; added with Rabbit IgG (0.05 μg/mL)) was 21.3 (0.4) and the “Cell Index (+/- SEM)” value ([1]; added with Rabbit IgG (0.5 μg/mL)) was 21.1 (0.4). For the same substance, the “Cell Index (+/- SEM)” value ([1]; added with Rabbit IgG (5 μg/mL)) was 24.2 (0.5), the PDI [2] was 0.33 and the “blocking activity (inhibition; 100% = complete blocking)” value [3] was “best blocking activity”. For the same substance, the “ability to bind to and block anti-DSG2 antibody (in words)” value (anti-DSG2 antibody) was “able to bind and block anti-DSG2 antibody”, the “% inhibition” value (anti-DSG2 antibody; sample: Anti-DSG2 antibody (200 ng/mL) control) was 63.8% and the “% inhibition” value (anti-DSG2 antibody; sample: Anti-DSG2 antibody (1000 ng/mL) control) was 88.4%. The “% inhibition” value (anti-DSG2 antibody; sample: no antibody control) was 4.8%.
